Data reported in patent publication US6914045B2, “Glycopeptide antibiotics” (Wyeth Holdings Corporation, priority 2001, dated 2005).

Experiments:
Staphylococcus sp. = experiment: in vitro antibacterial evaluation, MIC by broth dilution; assay type: cell-based; conditions: broth dilution, 18 hours at 35° C.
Outline: (§1)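 MIC, the lowest antibiotic concentration preventing growth, was read across 64-0.06 μg/mL with 5×10^5 CFU/mL inoculum. Method followed NCCLS M7-A2 broth dilution using Mueller-Hinton II; Gram-positive strains covered recent methicillin-, penicillin- and/or vancomycin-resistant clinical isolates.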

Enterococcus sp. = experiment: as above; assay type: cell-based; conditions: broth dilution, 18 hours at 35° C.
Outline: as §1

Escherichia coli = experiment: as above; assay type: cell-based; conditions: 18 hours at 35° C.
Outline: as §1

Streptococcus sp. = experiment: as above; assay type: cell-based; conditions: broth dilution, 18 hours at 35° C.
Outline: as §1

[1] = tested on: Streptococcus pneumoniae (GC 1894); experiment: acute lethal infection in mice; assay type: in vivo; conditions: female CD-1 mice, intraperitoneal challenge, intravenous 30 min. after infection, 7 day survival
Outline: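 Protocol: bacteria suspended in trypticase soy broth or hog gastric mucin injected ip into female CD-1 mice at a level killing untreated controls in 24-48 hr; compound given iv in saline or 5% dextrose 30 min post-challenge; five mice per dose; ED50 derived from pooled 7 day survival of three runs.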

Staphylococcus aureus = experiment: zone of inhibition, agar well assay plate; assay type: cell-based; conditions: 25 μl of extract per 5 mm well, incubated overnight at 37° C.
Procedure: Protocol for Assay Plate Staphylococcus aureus
Inoculate 10 mL of Tryptic Soy Broth with a loopful of slant culture, Staphylococcus aureus, and place in a stationary rack at 37° C. After 16-18 hour incubation, the Optical Density (OD) of the culture is read@A600 nm, using a 1:10 dilution. OD should be between 0.1-0.3, and if not adjust with Tryptic Soy Broth. A 40 mL sample of Nutrient Agar, pH 6.8 is inoculated with 90 ul of S. aureus culture and poured into a sterile petri dish. When the agar has solidified, wells (5 mm) are plated using an automated welling device. Wells are inoculated with 25 μl of extract and incubated overnight at 37° C. Zones of inhibition are measured and recorded the following morning.

CC(c1ccccc1)C1NC(=O)CNC(=O)C(CO)NC(=O)C(C(O)C2CNC(=N)N2C2OC(CO)C(O)C(O)C2O)NC(=O)C(C(O)C2CNC(=N)N2)NC(=O)C(Cc2ccc(OC3OC(CO)C(OC4OC5COC(C6CCCCC6)OC5C(O)C4O)C(O)C3O)cc2)NC1=O (stereo not drawn) [Example 112, Cyclo[glycyl-β-methylphenylalanyl-O-[4-O-[4,6-O-(cyclohexylmethylene)hexopyranosyl]-hexopyranosyl]tyrosyl-3-(2-iminoimidazolidin-4-yl)seryl-3-(3-hexopyranosyl-2-iminoimidazolidin-4-yl)serylseryl]]
0.02 mg/kg: median effective dose (ED50), Streptococcus pneumoniae (GC 1894) [1]
1 µg/mL: MIC Coagulase Negative Staphylococcus (GC 6257) (Staphylococcus sp.) | MIC Staphylococcus aureus (ATCC 29213) (Staphylococcus sp.) | MIC Staphylococcus aureus (GC 4541) (Staphylococcus sp.) | MIC Staphylococcus aureus (GC 4542) (Staphylococcus sp.) | MIC Staphylococcus haemolyticus (GC 4546) (Staphylococcus sp.) | MIC Staphylococcus aureus (ATCC 29213) (Staphylococcus sp.; strain ATCC 29213) | MIC Staphylococcus aureus (GC 4541) (Staphylococcus sp.; strain GC 4541) | MIC Staphylococcus aureus (GC 4542) (Staphylococcus sp.; strain GC 4542) | MIC Staphylococcus haemolyticus (GC 4546) (Staphylococcus sp.; strain GC 4546) | MIC Coagulase Negative Staphylococcus (GC 6257) (Staphylococcus sp.; strain GC 6257) | MIC Escherichia coli (GC 4560) (Escherichia coli; strain GC 4560)
<0.12 µg/mL: MIC Streptococcus agalactiae (GC 4564) (Streptococcus sp.; Streptococcus agalactiae (GC 4564)) | MIC Streptococcus pneumoniae (GC 4565) (Streptococcus sp.; Streptococcus pneumoniae (GC 4565)) | MIC Streptococcus pyogenes (GC 4563) (Streptococcus sp.; Streptococcus pyogenes (GC 4563)) | MIC Streptococcus pyogenes (GC 4563) (Streptococcus sp.; strain GC 4563) | MIC Streptococcus agalactiae (GC 4564) (Streptococcus sp.; strain GC 4564) | MIC Streptococcus pneumoniae (GC 4565) (Streptococcus sp.; strain GC 4565)
32 µg/mL: MIC Escherichia coli (ATCC 25922) (Escherichia coli; strain ATCC 25922)
1 to 2 µg/mL: MIC Staphylococcus aureus (GC 4545) (Staphylococcus sp.) | MIC Staphylococcus aureus (GC 4545) (Staphylococcus sp.; strain GC 4545) | MIC Enterococcus faecalis (GC 2242) (Enterococcus sp.; Enterococcus faecalis (GC 2242)) | MIC Enterococcus faecium (GC 2243) (Enterococcus sp.; Enterococcus faecium (GC 2243)) | MIC Enterococcus faecalis (GC 2242) (Enterococcus sp.; strain GC 2242) | MIC Enterococcus faecium (GC 2243) (Enterococcus sp.; strain GC 2243)
>16 µg/mL: MIC Escherichia coli (GC 4559) (Escherichia coli; strain GC 4559)
0.5 µg/mL: MIC Coagulase Negative Staphylococcus (ID-3941) (Staphylococcus sp.) | MIC Coagulase Negative Staphylococcus (ID-3941) (Staphylococcus sp.; strain ID-3941) | MIC Streptococcus pyogenes (ID-3187) (Streptococcus sp.; Streptococcus pyogenes (ID-3187)) | MIC Streptococcus pyogenes (ID-3187) (Streptococcus sp.; strain ID-3187)
0.5 to 2 µg/mL: MIC Staphylococcus aureus (GC 4544) (Staphylococcus sp.) | MIC Staphylococcus aureus (GC 4544) (Staphylococcus sp.; strain GC 4544) | MIC Enterococcus faecium (GC 4557) (Enterococcus sp.; Enterococcus faecium (GC 4557)) | MIC Enterococcus faecium (GC 4557) (Enterococcus sp.; strain GC 4557)
2 µg/mL: MIC Enterococcus avium (GC 4558) (Enterococcus sp.; Enterococcus avium (GC 4558)) | MIC Enterococcus faecalis (ATCC 29212) (Enterococcus sp.; Enterococcus faecalis (ATCC 29212)) | MIC Enterococcus faecalis (GC 2691) (Enterococcus sp.; Enterococcus faecalis (GC 2691)) | MIC Enterococcus faecalis (GC 3059) (Enterococcus sp.; Enterococcus faecalis (GC 3059)) | MIC Enterococcus faecalis (GC 4552) (Enterococcus sp.; Enterococcus faecalis (GC 4552)) | MIC Enterococcus faecalis (GC 4554) (Enterococcus sp.; Enterococcus faecalis (GC 4554)) | MIC Enterococcus faecalis (GC 6189) (Enterococcus sp.; Enterococcus faecalis (GC 6189)) | MIC Enterococcus faecium (GC 4556) (Enterococcus sp.; Enterococcus faecium (GC 4556)) | MIC Enterococcus faecalis (ATCC 29212) (Enterococcus sp.; strain ATCC 29212) | MIC Enterococcus faecalis (GC 2691) (Enterococcus sp.; strain GC 2691) | MIC Enterococcus faecalis (GC 3059) (Enterococcus sp.; strain GC 3059) | MIC Enterococcus faecalis (GC 4552) (Enterococcus sp.; strain GC 4552) | MIC Enterococcus faecalis (GC 4554) (Enterococcus sp.; strain GC 4554) | MIC Enterococcus faecium (GC 4556) (Enterococcus sp.; strain GC 4556) | MIC Enterococcus avium (GC 4558) (Enterococcus sp.; strain GC 4558) | MIC Enterococcus faecalis (GC 6189) (Enterococcus sp.; strain GC 6189)
2 to 4 µg/mL: MIC Enterococcus faecalis (GC 4553) (Enterococcus sp.; Enterococcus faecalis (GC 4553)) | MIC Enterococcus faecalis (GC 4553) (Enterococcus sp.; strain GC 4553)
0.5 to 1 µg/mL: MIC Coagulase Negative Staphylococcus (GC 4547) (Staphylococcus sp.) | MIC Coagulase Negative Staphylococcus (GC 4548) (Staphylococcus sp.) | MIC Coagulase Negative Staphylococcus (GC 4549) (Staphylococcus sp.) | MIC Coagulase Negative Staphylococcus (GC 4551) (Staphylococcus sp.) | MIC Staphylococcus aureus (GC 1131) (Staphylococcus sp.) | MIC Staphylococcus aureus-SMITH (GC 4543) (Staphylococcus sp.) | MIC Staphylococcus aureus (GC 1131) (Staphylococcus sp.; inoculum 5×10^5 CFU/mL, strain GC 1131) | MIC Coagulase Negative Staphylococcus (GC 4547) (Staphylococcus sp.; strain GC 4547) | MIC Coagulase Negative Staphylococcus (GC 4548) (Staphylococcus sp.; strain GC 4548) | MIC Coagulase Negative Staphylococcus (GC 4549) (Staphylococcus sp.; strain GC 4549) | MIC Coagulase Negative Staphylococcus (GC 4551) (Staphylococcus sp.; strain GC 4551) | MIC Staphylococcus aureus-SMITH (GC 4543) (Staphylococcus sp.; strain SMITH GC 4543)

CCCCCCC(=O)OC1C(OC2C(CO)OC(Oc3ccc(CC4NC(=O)C(C(C)c5ccccc5)NC(=O)CNC(=O)C(CO)NC(=O)C(C(O)C5CNC(=N)N5C5OC(CO)C(O)C(O)C5O)NC(=O)C(C(O)C5CNC(=N)N5)NC4=O)cc3)C(O)C2O)OC(CO)C(O)C1O (stereo not drawn) [Example 274a, Cyclo[glycyl-β-methylphenylalanyl-O-[4-O-(2-O-heptanoyl-hexopyranosyl)-hexopyranosyl]tyrosyl-3-(2-iminoimidazolidin-4-yl)seryl-3-(3-hexopyranosyl-2-iminoimidazolidin-4-yl)serylseryl]]
9 mm: Zone of Inhibition vs. S. aureus (Staphylococcus aureus)

CCCC(=O)OC1C(O)C(CO)OC(OC2C(CO)OC(Oc3ccc(CC4NC(=O)C(C(C)c5ccccc5)NC(=O)CNC(=O)C(CO)NC(=O)C(C(O)C5CNC(=N)N5C5OC(CO)C(O)C(O)C5O)NC(=O)C(C(O)C5CNC(=N)N5)NC4=O)cc3)C(O)C2O)C1O (stereo not drawn) [Example 272b, Cyclo[glycyl-β-methylphenylalanyl-O-[4-O-(3-O-butanoyl-hexopyranosyl)-hexopyranosyl]tyrosyl-3-(2-iminoimidazolidin-4-yl)seryl-3-(3-hexopyranosyl-2-iminoimidazolidin-4-yl)serylseryl]]
8 mm: Zone of Inhibition vs. S. aureus (Staphylococcus aureus)
